Assay [1] deals with rabbit osteoclasts. Briefly: Rabbit osteoclast culture system. The format is cell-based. Particulars: for rabbit osteoclast numbers / resorption activity: rabbit osteoclast culture on dentine. The source says: The second model system was the rabbit osteoclast system, where mature, functional osteoclasts were isolated from the long bones of rabbits and cultured on dentine slices.
Osteoclast Isolation. Osteoclasts were isolated from the long bones of 2-10 day-old rabbits, as described previously (see, e.g., reference Coxon et al., 2000). All 4 limbs were removed from the rabbits and placed in ice-cold PBS. Soft tissue and cartilage were removed and the bones transferred into fresh PBS. The bones were minced in aMEM (without FCS), using a scalpel. All the medium and fragments were transferred to a 50 ml tube, vortexed for 3×10 seconds and left to stand for 1 minute. The supernatant was removed and made up to 50 ml/rabbit with medium and FCS so as to give a final concentration of 10% FCS.
Osteoclast Plating. The cells were plated onto dentine slices in a 96 well plate, at 100 μL/well (medium: αMEM supplemented with 10% FCS and penicillin and streptomycin) and left for 4 hours to allow adherence to the dentine. After this period the medium was removed, and with it the non-adherent cells. Fresh medium was then added. The remaining population was highly enriched in osteoclasts.
Culturing. At this point, test compounds to be studied were added and the cells cultured at 37° C. in 5% CO2 for 48 hours. At the end of the culture, the osteoclasts were identified by staining for tartrate-resistant acid phosphatase (TRAcP) staining. A good number of osteoclasts in the controls was 100-200.
The resorption pit area was quantified by reflected light microscopy as described previously (see, e.g., van't Hof & Ralston, 1997) and again the results expressed as a % of the control values.

For assay [2], the system named is macrophage cell line J774. Description: MTT macrophage J774 viability assay. The format is cell-based. Particulars: MTT assay; for IC50: Mus musculus, macrophage J774 viability. The protocol:
MTT (3-(4,5-dimethylthiazol-2-yl)-2,5-diphenyl tetrazolium bromide) has an […] colour and is soluble in the medium used for cell culture. The mitochondrial enzyme succinate dehydrogenase acts upon MTT in living cells to produce the insoluble purple coloured formazan. The amount of formazan produced, as measured by UV/visible spectroscopy, is proportional to the number of viable cells.
The medium was carefully removed using a needle without dislodging the crystal layer. 100 μL acidified isopropanol (4 M HCl 1:100 v/v in isopropanol) was added to each well and the purple crystals allowed to dissolve. The absorbance was measured in a plate reader at 540 nm, with 690 nm as reference. The controls were a deep purple colour, indicating a high number of live cells.
Addition of Compounds. […] These stock solutions were then diluted 100× in culture medium.
For orientation: Tetrazolium assays rely on reduction of a dye to a coloured formazan, in cell work by metabolically active cells.

For assay [3], the system named is osteoclasts. Description: Murine co-culture system (osteoblast-bone marrow co-culture on dentine). As to conditions: for inhibition of osteoclast formation and activity: murine co-culture system. The format is cell-based, mice. The protocol:
The first model system, the murine co-culture system, studies the formation of osteoclasts_from precursors present in the bone marrow. The number of osteoclasts and the amount of dentine resorption was measured.
Osteoclast formation and activity was studied using an adaptation (see, e.g., van't Hof & Ralston, 1997) of the osteoblast-bone marrow co-culture assay originally described by Takahashi et al., 1988.
Co-Culture Methods. Co-culture (see, e.g., Van't Hof et al., 1997) is a method to study the formation of osteoclasts from their precursors. In this assay, osteoblasts were obtained from the calvaria of 2-3 day old neonatal mice. These were plated on dentine, stimulated with 1,25-dihydroxy vitamin D3 to stimulate RANKL and M-CSF expression. Early osteoclast precursors were present in the bone marrow of adult mice. The bone marrow suspension was purified to remove the red blood cells and the remainder cultured on top of the osteoblast layer. The stimulatory factors then allowed the osteoclast precursors to differentiate into mature osteoclasts. At the end of the culture osteoclasts were identified by TRAcP staining and the resorption activity was measured in the same manner as for rabbit osteoclasts.
Preparation of Dentine. The dentine was elephant ivory, preferred to bone because of its uniform surface, which facilitates easy visualisation of resorption pits. It was cut into slices of approximately 200 μm thickness using a Buehler Isomet low speed saw with a diamond wafering blade (series 15 HC). These slices were polished by hand, to a high degree, until one side was shiny. Out of these slices, discs were punched that fit the wells of a 96 well plate, using a paper puncher. Excess residues from the polish were removed by sonication. The discs were then stored in 70% ethanol until required. These discs were then dried and placed shiny side up in the wells of a 96 well plate. Cells were seeded onto the dentine. Following completion of the culture, these dentine slices were carefully removed from the plate and studied under the microscope.
Osteoblast Isolation. Briefly, osteoblasts were isolated from the calvarial bones of 2-day-old mice by sequential collagenase digestion (type I collagenase, Sigma) and cultured in αMEM supplemented with 10% FCS (foetal calf serum) and penicillin and streptomycin at 37° C. in 5% CO2.
More specifically, osteoblasts were obtained from a collagenase digestion of the calvaria (skull bones) of 2-3 day old neo-natal MF1 mice. At this stage in their development these are soft and easily removed. The calvaria from 5-6 mice were carefully dissected and washed in HBSS (Hank's balanced saline solution). The calvaria were placed in a 15 ml tube and shaken at 37° C. in 4 ml collagenase (10 mg/ml) for 10 minutes. This removes the excess unwanted tissue. The liquid was disposed of and a further 4 ml collagenase (10 mg/ml) added to the tube. The calvaria were then digested for a further 30 minutes. After this the supernatant (F1) was removed and retained. The calvaria were washed with a 2×4 ml PBS and this was added to F1. 4 ml EDTA (ethylene diamine tetraacetic acid) (4 mM in PBS) was then added to complex the calcium and allow further extraction of osteoblasts. This was shaken for 10 minutes at 37° C. The supernatant was removed and retained (F2). The calvaria were again washed with 2×4 ml HBSS and this was added to F2. The final 4 ml of collagenase (10 mg/ml) was added to the tube and this was again shaken at 37° C. for 30 minutes. […]

Assay [4] concerns macrophage cell line J774. Description: Alamar Blue macrophage J774 viability assay. Particulars: Mus musculus, J774, 72 h, read-out: IC50 (μM) Alamar Blue. (In general: Resazurin is reduced to fluorescent resorufin, in cell work by metabolically active cells.)

“Also recorded” adds a separate entry of the source.

By IC50 is commonly meant the concentration that gives 50% inhibition. With `O=C(OCCCCO)c1ccc(-c2ccccc2)cc1` [ABD-0056, 1,4-Butanediol mono(biphenyl-4-carboxylic acid)Ester], the “concentrations showing a significant effect” value in assay [1] (osteoclast numbers and resorption activity) was no less than 10 µM. In assay [1], the rabbit osteoclast numbers result is on record as “significantly reduced” and the resorption activity result is given as “significantly reduced”. The same compound displayed an IC50 in assay [2] of 3.5 µM. In addition, the “number of murine osteoclasts (osteoclast precursors)” value in assay [3] (compound added at Day 2, removed at Day 4, terminated at Day 10 (FIG. 15)) is “even more effective against osteoclast precursor formation than against mature osteoclasts”. In addition, the “resorption pit area (osteoclast precursors)” value in assay [3] (compound added at Day 2, removed at Day 4, terminated at Day 10, all concentrations tested (FIG. 16)) is recorded as “virtually no resorption”. Further, the “inhibition of osteoclast formation and activity” value in assay [3] is “significantly inhibited; also recorded: potent inhibitor”. The IC50 in assay [4] is 18 µM.
Take `O=C(OCCCCCCO)c1ccc(-c2ccccc2)cc1` [ABD-0054, 1,6-Hexanediol mono(biphenyl-4-carboxylic acid)Ester]: in assay [1], the rabbit osteoclast numbers entry was “significantly reduced” and the resorption activity entry was “significantly reduced”. Also, in assay [2] (range of concentrations (FIGS. 4-7)), the “macrophage J774 viability, activity in words” value was “next most active”. This compound also registered an IC50 in assay [2] of 35 µM. The “inhibition of osteoclast formation and activity” value in assay [3] is on record as “significantly inhibited”.
